ChEMBL document CHEMBL1127095, “Pharmacology of (2R, 4R, 5S)-2-amino-4,5-(1,2-cyclohexyl)-7-phosphonoheptanoic acid (NPC 17742); a selective, systemically active, competitive NMDA antagonist” (Bioorg Med Chem Lett, 1993)

Key:
Mus musculus [1] = assay: Tested for the ability to inhibit the NMDA induced (250mg/Kg, intraperitoneal) seizures in male CF-1 mice when given 30 min prior to NMDA (intraperitoneal); type: functional; conditions: ip
Mus musculus [2] = species: Mus musculus; assay: Tested for the ability to inhibit the maximal electroshock induced seizures in mice; type: functional
Mus musculus [3] = assay: Tested for the ability to inhibit the […] induced seizures (ip administration); type: functional
Glutamate NMDA receptor = assay: Tested for the ability to inhibit the specific binding of [3H]-CGS- 19755 to NMDA recognition sites on rat brain membranes; type: cell membranes, Membrane
[4] = Tested for the lethal dose by intraperitoneal administration; type: ADME; conditions: mouse, ip
Rattus norvegicus [5] = assay: Tested for the paradigm of drug-discrimination assay (NPC 17742 (4 mg/Kg; i.p.) from saline) in rat by intraperitoneal administration; type: functional; conditions: ip
Rattus norvegicus [6] = assay: Tested for the paradigm of drug-discrimination assay in rat by intraperitoneal administration; type: functional; conditions: ip
Mus musculus [7] = assay: Tested for the ability to inhibit the NMDA induced (250mg/Kg, intraperitoneally) seizures in male CF-1 mice given 15 min prior to NMDA (intracerebroventricularly); type: functional
Mus musculus [8] = species: Mus musculus; assay: Tested for the ability to inhibit the pentylenetetrazole seizures in mice; type: functional
Rodentia sp. = assay: Tested for the ability to inhibit the cocaine-induced seizures in rodents; type: functional
Rattus norvegicus [9] = assay: Tested for the paradigm of drug-discrimination assay in rats by intraperitoneal administration.; type: functional; conditions: ip
Rattus norvegicus [10] = assay: Tested for the paradigm of drug-discrimination assay in rats by intraperitoneal administration; type: functional; conditions: ip
Rattus norvegicus [11] = assay: Tested for the paradigm of drug-discrimination assay (NPC 17742 (4 mg/Kg) from saline) in rats by intraperitoneal administration; type: functional; conditions: ip

| SMILES | IC50 (Glutamate NMDA receptor) | ED50 (Mus musculus [1]) | ED50 (Mus musculus [7]) | further results |
| --- | --- | --- | --- | --- |
| N[C@H](C[C@H]1CCCCC1CCP(=O)(O)O)C(=O)O (single isomer, unassigned) | 0.27 µM | 1.05 mg/kg | 0.28 nmol | ED50 (Mus musculus [2]): 13 mg/kg; ED50 (Mus musculus [3]): 4.5 mg/kg; LD50 [4]: > 1000 mg/kg; ED50 (Rattus norvegicus [5]): 1.9 mg/kg; ED50 (Rattus norvegicus [6]): 2.1 mg/kg; ED50 (Mus musculus [8]): 4.5 mg/kg |
| CC(=CC(N)C(=O)O)CP(=O)(O)O (stereo not given) [CGP-37849] |  |  |  | ED50 (Rodentia sp.): 0.1 mg/kg; ED50 (Rattus norvegicus [9]): 0.8 mg/kg |
| O=C(O)[C@@H]1C[C@H](CP(=O)(O)O)CCN1 (single isomer, unassigned) [SELFOTEL] | 0.087 µM | 2.6 mg/kg | 0.19 nmol | ED50 (Rattus norvegicus [10]): 2.3 mg/kg |
| O=C(O)C1CN(CCCP(=O)(O)O)CCN1 (racemic) | 0.19 µM | 2.2 mg/kg | 1.2 nmol |  |
| O=C(O)[C@H]1CN(C/C=C/P(=O)(O)O)CCN1 [MIDAFOTEL] |  |  |  | ED50 (Rattus norvegicus [9]): 0.8 mg/kg |
| NC(CC1CCCCC1CCP(=O)(O)O)C(=O)O (stereo not given) |  |  |  | ED50 (Rattus norvegicus [11]): 8.9 mg/kg; ED50 (Rattus norvegicus [9]): 18.1 mg/kg |

Further lines, with some results ahead:

| IC50 (Glutamate NMDA receptor) | SMILES | ED50 (Mus musculus [1]) | ED50 (Mus musculus [7]) | further results |
| --- | --- | --- | --- | --- |
| 2.4 µM | N[C@@H](C[C@@H]1CCCC[C@@H]1CCP(=O)(O)O)C(=O)O | 32 mg/kg | 8.5 nmol |  |
| 4.05 µM | NC(C[C@@H]1CCCC[C@H]1CCP(=O)(O)O)C(=O)O (stereo in doubt; (-)) | > 100 mg/kg | 20 nmol |  |
| 2.6 µM | N[C@@H](C[C@H]1CCCC[C@H]1CCP(=O)(O)O)C(=O)O | 40 mg/kg | 44.6 nmol |  |
| 5.6 µM | N[C@H](C[C@@H]1CCCC[C@@H]1CCP(=O)(O)O)C(=O)O | 33 mg/kg | 8.5 nmol |  |
| 28 µM | NC(C[C@@H]1CCCC[C@H]1CCP(=O)(O)O)C(=O)O (stereo in doubt; (+)) |  | 49 nmol |  |
